This is an account of results in publication PMC9028219 (Frontiers in Nutrition, 2022).

Test [1] concerns A549. Description: NRU anti-proliferative assay. In kind it is cell-based. The note with it: Homo sapiens. The method, then:
(§1) The cell lines used for the present study were K562 (erythroid leukemia), COLO-205 (colon carcinoma), FaDu (hypopharyngeal carcinoma), MCF-7 (breast ER+ve adenocarcinoma), WRL-68 (hepatocellular carcinoma), A549 (lung carcinoma), and HEK-293 (embryonic kidney). These cell lines were purchased from the National Center for Cell Sciences (NCCS), Pune, India, except FaDu, which Dr. Sarkar endowed from CSIR-Central Drug Research Institute, Lucknow, Uttar Pradesh, India.
(§2) The NRU assay was carried out by Babich and Borenfreund ([29]) method. Similar to the SRB assay, 5 μl NRU dye was added to the treated plate. Then, cells were washed with fixative solution after 3 h of incubation; further, the bound dye was solubilized in a dissolving solution. The absorbance was measured at 540 nm ([29]).

For test [2], the system named is resistant species. The note with it: against the resistant species; ref [8], [9]; cited from earlier work.
Test [3] deals with HEK-293 (normal) cell line. Kind of test: Anti-proliferative activity (SRB, MTT, NRU assays). In kind it is cell-based, human. The method, then: as §1
(§3) The SRB assay was carried out by following the method reported by Skehan et al. ([27]) with a slight modification ([28]). In 96 well plates, approximately ~2 ×10^3 cells per well were seeded. […] Approximately 20% of TCA was added in treated plates to precipitate cellular proteins, followed by washing cells with tap water and adding 10 μl SRB dye (0.4%) in each well of the plate. Then, the plate was washed with 1% acetic acid to remove the unbound dye. The bound dye was dissolved in 200 μl tris base (10 mM). The absorbance was finally measured at 515 nm using a spectrophotometer (Multiskan^TM Go SkanIt Software, version 4.0, Thermo Fisher Scientific, Waltham, MA, USA).
as §2
(§4) The MTT assay was performed following the protocol as Mosmann ([30]) determined. […] The next day, 10 μl (500 μg/ml) of MTT dye was added to each well of the plate and further incubated for 4 h. After that, the formazan crystal was dissolved in 100 μl DMSO and absorbance was measured at 570 nm. The SRB, NRU, and MTT assays were calculated using percentage cytotoxicity concerning control ([30]).

For test [4], the system named is COLO-205. Kind of test: Anti-proliferative activity (SRB, MTT, NRU assays). In kind it is cell-based, human. The note with it: COLO-205, higher tested concentration 100 μM. On the procedure:
as §1, §3, §2, §4

Test [5] concerns WRL-68. Kind of test: Anti-proliferative activity (SRB, MTT, NRU assays). The note with it: WRL-68, higher tested concentration 100 μM. In kind it is cell-based, human. The method, then:
as §1, §3, §2, §4

Test [6] relates to MCF-7. Description: Anti-proliferative activity (SRB, MTT, NRU assays). Type of test: cell-based, human. The note with it: MCF-7, higher tested concentration 100 μM. The method, then:
as §1, §3, §2, §4

Test [7] has as its target T1, Cathepsin D (CATD) (Homo sapiens, UniProt P07339).
T1 construct: endogenous in cells; host or cells: FaDu, K562, A549
Kind of test: CATD activity assay in cell lysate. Type of test: cell-based. On the procedure:
Protein was estimated by nanodrop before being used for the enzyme assays.
The HYAL assay was performed by the standard reported protocol ([35]). Approximately 10 μg of cell lysate added in enzyme diluent buffer (77 mM sodium chloride, 20 mM sodium phosphate, 0.01% albumin, and pH 7.0 at 37°C). The reaction mixture was incubated for 45 min after adding HA (substrate). The mixture was distributed in three parts, each well of the plate containing 25 μl followed by the addition of 125 μl of diluent buffer (79 mM acetic acid, 24 mM sodium acetate, 0.1% albumin bovine, and pH 3.75). The absorbance was measured at 600 nm after 10 min incubation. The graph was shown in the terms of percentage inhibition. Hemoglobin was used as a substrate to determine CATD activity ([36]). Cell lysate (10 μg) was incubated with a reaction cocktail (2.5% of hemoglobin, deionised water, 400 mM citrate buffer, and pH 2.8) for 30 min at 37°C; the reaction was terminated by adding 5% TCA. Then, 200 μl of supernatant was taken in plate after centrifuge and absorbance were measured at 280 nm.

The test system of test [8] is PI3K. Kind of test: ELISA kit assay in FaDu cells. In kind it is cell-based, human. On the procedure: (§5) The PI3K expression was determined using a kit procured from Bioassay Technology (Catalog No. E0896Hu). The protocol measured the AKT (Catalog No. 201-12-0893) and HDAC-6 (Catalog No. 201-12-2132) as indicated in the human-specific ELISA kit from Sun Red Company, China. mTOR (Catalog No. E-EL-H1655) was quantified by a kit purchased from ELab Sciences, USA. The VEGF (Catalog No. ab100663) and HIF-1α (Catalog No. ab171577) were estimated using a kit procured from Abcam, UK.

Test [9] relates to HIF-1α. Kind of test: ELISA kit assay in FaDu cells. In kind it is cell-based, human. The note with it: both tested concentrations. The method, then: as §5
Background: In an ELISA, binding on a coated surface is turned into a signal by an enzyme label.

The test system of test [10] is VEGF. Kind of test: ELISA kit assay in FaDu cells. Type of test: cell-based, human. The note with it: both tested concentrations. On the procedure: as §5
The subject of test [11] is AKT. Description: ELISA kit assay in FaDu cells. In kind it is cell-based, human. On the procedure: as §5
Test [12] relates to mTOR. Description: ELISA kit assay in FaDu cells. In kind it is cell-based, human. On the procedure: as §5
Test [13] relates to HDAC-6. Description: ELISA kit assay in FaDu cells. In kind it is cell-based, human. On the procedure: as §5
In test [14] the test system is FaDu cells. Description: ROS production (DCFH-DA). Type of test: cell-based, human. The method, then:
The cell cycle analysis was carried out by the protocol reported by Fatima et al. ([40]). The cell lines were fixed with 70% ethanol. Before analysis, fixed cells were washed at least two times with PBS and PI solution containing RNase A to stain the cells. The samples were run on a flow cytometer within 1 h. Treated FaDu cells were incubated with 10 μM of DCFH-DA dye for 30 min then fluorescence was measured at 485/530 nm of […]. For FACS analysis, treated cells were incubated with 10 μM of DCFH-DA dye for 30 min, and the samples were analyzed within 1 h ([41]). The protocol for the analysis of MMP was similar to that of DCFH-DA except for Rhodamine 123 dye ([41]). The experiment was also carried out as per the method reported in Annexin-V-FITC apoptosis detection kit I (BD Pharmingen^TM, Catalog No. 556547). For the assay, 1 × 10^6 cells were grown in 6 well plates and treatment was given 24 h. The next day, cells were washed with cold PBS, and the pellet was resuspended in 100 μl (1X binding) buffer and left for 15 min followed by incubation with a dual fluorescent dye (5 μl FITC and 5 μl PI) for 10 min. The cell suspension was maintained upto 500 μl from the 1X binding buffer. The stained cells were analyzed by flow cytometer within 1 h ([42]).

T1 sequence (P07339 65-412): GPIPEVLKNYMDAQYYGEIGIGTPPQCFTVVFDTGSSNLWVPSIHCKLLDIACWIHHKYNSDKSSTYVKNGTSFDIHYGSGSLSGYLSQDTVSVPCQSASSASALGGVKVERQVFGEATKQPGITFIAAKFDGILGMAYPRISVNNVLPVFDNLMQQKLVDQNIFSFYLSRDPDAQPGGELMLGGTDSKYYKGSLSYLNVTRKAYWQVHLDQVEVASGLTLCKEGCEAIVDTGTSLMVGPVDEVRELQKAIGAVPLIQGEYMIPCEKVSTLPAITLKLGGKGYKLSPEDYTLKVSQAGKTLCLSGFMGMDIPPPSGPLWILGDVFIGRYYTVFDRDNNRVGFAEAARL

The IC50 is the point on the concentration scale where inhibition reaches its midpoint. Higher therefore signals weaker potency. As to `Cc1ccc(C(C)C)cc1O` [carvacrol, 5-isopropyl-2-methyl phenol], the 50% inhibitory concentration (IC50) in [1] came out at 80.9 ± 8.28 µM. Also, the “minimum inhibitory concentration (MIC)” value in test [2] is on record as 0.015–0.03 % v/v. In addition, the cell growth inhibition entry in [3] is “approximately 25%”. For the same compound, the reduction of proliferation result in test [4], in [5] and in test [6] was “up to 24%” in each case. The entries for the “suppression of CATD activity” value in test [7] (A549), in test [7] (FaDu) and in test [7] (K562) were 2 ± 0.52%, 18.48 ± 0.33% and 5 ± 0.94%, respectively. Also, in [8], the “effect on PI3K activity” value was “suppresses the activity of the PI3K/AKT at the higher tested concentration”. In addition, the “effect on HIF-1α activity” value in test [9] is “the effect was non-significant”. Besides, in test [10], the “effect on VEGF activity” value was “the effect was non-significant”. Also, the “effect on AKT activity” value in test [11] is given as “suppresses the activity of the PI3K/AKT at the higher tested concentration”. Besides, in test [12], the “effect on mTOR activity” value is on record as “reduces the activity”. For the same compound, the “effect on HDAC-6 activity” value in test [13] was “inhibits HDAC-6 activity in a dose-dependent manner”. Moreover, in [14], the ROS production result is recorded as “increases the ROS production in FaDu cell line in a dose-dependent manner; however, the effect was non-significant”.
